# Test results from patent US20230159436A1, “APPLICATIONS OF AMIDE ANALOGS OF TRITERPENES IN CURES OF CANCER AND OTHER DISEASES” (Pacific Arrow Limited, priority 2021, published 2023).
# Read-outs that look alike come from different tables or passages of the source.
# Key:
# Swiss3T3 cells = assay: Cytotoxicity determination in Swiss3T3 normal fibroblast; assay type: cell-based; conditions: mouse normal fibroblast; preliminary results
# Procedure: (§1) MTT Assay. The procedure for MTT assay followed the method described by Carmichael et al. (1987) with modifications. The cells were seeded into a 96-well plate at for 24 hours before drug-treatment. The cells were then exposed to the drugs for 48, 72, or 96 hours. After the drug-treatment, MTT (0.5 mg/mL) was added to cultures and incubated for an hour. The formazan (product of the reduction of tetrazolium by viable cells) formed and was dissolved with DMSO and the O.D. at 490 nm, and was measured by an ELISA reader. The MTT level of the cells before drug-treatment was also measured (T0). The % cell-growth (% G) is calculated as: % G=(TD−T0/TC−T0)×100(1), where TC or TD represents O.D. readings of control or drug-treated cells.
# HepG2 = assay: MTT assay, liver (HepG2); assay type: cell-based
# Procedure: (§2) Cells. HTB-9 (bladder), HeLa-S3 (cervix), DU145 (prostate), H460 (lung), MCF-7 (breast), K562 (leukemia), HCT116 (colon), HepG2 (liver), U2OS (bone), T98G (brain), SK-MEL-5 (Skin) and OVCAR 3, ES2 (ovary), Pancreas (Capan), Mouth (KB), Kidney (A498).
# as §1
# (§3) When T0>TD, then the cytotoxicity (LC) expressed as % of the control is calculated as: % LC=(TD−T0/T0)×100(2).
# A498 = assay: MTT assay, kidney (A498); assay type: cell-based
# Procedure: as §2, §1, §3
# MCF-7 = assay: MTT assay, breast (MCF-7); assay type: cell-based
# Procedure: as §2, §1, §3
# HTB-9 = assay: MTT assay, bladder (HTB-9); assay type: cell-based
# Procedure: as §2, §1, §3
# U2OS = assay: MTT assay, bone (U2OS); assay type: cell-based
# Procedure: as §2, §1, §3
# T98G = assay: MTT assay, brain (T98G); assay type: cell-based
# Procedure: as §2, §1, §3
# KB cells = assay: MTT assay, mouth (KB); assay type: cell-based
# Procedure: as §2, §1, §3
# red blood cells (RBC) = assay: Haemolytic assay; assay type: cell-based, human
# Procedure: Erythrocytes (RBC) were isolated from human blood (EDTA whole blood, collected randomly). 50 ul of the 10% RBC suspension (in PBS) was added to 2 ml of sample solutions (concentration range from 0.1 ug/ml to 400 ug/ml) in PBS. The mixture was vortexed briefly and sat for 60 min at room temperature. The mixture was spun at 3K for 10 min and the relative amounts of lysed hemoglobin in the supernatant were measured at 540 nm. The synthetic compounds of present application were tested with this method.
# SK-Mel-5 = assay: MTT assay, skin (SK-Mel-5); assay type: cell-based
# Procedure: as §2, §1, §3
# K562 cells [1] = assay: Inhibition of cell cycling (flow cytometry); assay type: cell-based, human; conditions: K562, three days, 0-20 ug/ml
# Procedure: Experiment 31: Inhibition of Cell Cycling • 1. Method: Cells: Human leukemia cells K562 cultured in RPMI1640 medium. • 2. Drug: compound from present application or Tig-S (1000× stock solution in DMSO). • 3. Start cells concentration: 500000/ml. • 4. Cells were cultured with drug (0-20 ug/ml) for total of three days. • 5. Cells were harvested by centrifugation (136×g, 6 minutes); fixed with 70% ethanol and kept in −20 C before staining. • 6. Staining: Fixed cells were stained with Propidium iodide/RNase A/0.1% Triton X-100 in PBS. • 7. Flow Cytometry Analysis was performed in Baylor Core Facility with a LSRII instrument. • 8. Analysis: Single cell was gated and cell count—FL2-Area histogram were plotted. • 9. Cell distribution in different cell-cycle phases (G0/G1, S, G2/M) was analyzed.
# K562 cells [2] = assay: Inhibition of leukemia K562 cells growth (cell count); assay type: cell-based, human
# Procedure: Method: • 1. Cells: Human leukemia cells K562 in RPMI1640 medium. • 2. Drug: Tig-S (1000× stock solution in DMSO). • 3. Start cells concentration: 50×10K per ml (500000/ml). • 4. Cells were cultured with or without drug for total of four days. • 5. Cell number is doubled after 2 days of incubation. Fresh medium (equal volume, with or without drug) was then added to culture. • 6. Cells were counted every day.
# K562 cells [3] = assay: Apoptosis in K562 cells (Annexin V / propidium iodide); assay type: cell-based, human
# Procedure: Experiment 34: Apoptosis in K562 Cells Induced by Tig-S • 1. Cells: Human leukemia cells K562 cultured in RPMI1640 medium. • 2. Drug: Tig-S (1000× stock solution in DMSO). • 3. Start cells concentration: 500000/ml. • 4. Cells were cultured with drug (0-20 ug/ml) for Two days. • 5. Collect cells from culture (1-4 million) by centrifugation (136×g for 5 min. remove supernatant). • 6. Wash cells with 1 ml of cold PBS, collect cells by centrifugation (136×g, 5 min, remove supernatant). • 7. Re-suspend cells in 200 ul Binding buffer (10 mM HEPES, 140 mM NaCl, 2.5 mM CaCl2, pH 7.4). • 8. Stained cells by adding 10 ul Annexin V (Alexa Fluor 488, Invitrogen cat #A13201), and 2 ul Propidium iodide (1 mg/ml in water) to cell suspension. Mix. • 9. Sit at Room temperature for 15 min. • 10. Wash cells with 1 ml binding buffer. Collect cells by centrifugation. • 11. Re-suspend cells with in 1 ml of binding buffer for analysis by flow cytometry. • 12. Flow Cytometry analysis was performed in Baylor Core Facility with a LSRII instrument. • 13. Analysis: Control cells stained with PI or Annexin V-488 (Annexin V-FITC) alone were served as references. About 50000 cells were analyzed for each sample. • 14. Cell distribution in following groups: live, early apoptosis, late-apoptosis, total apoptosis and dead cells were determined. • 15.
smiles,measurement,setting,value
"CC=C(C)C(=O)OCC1(C)C(O)CCC2(C)C1CCC1(C)C2CC=C2C3CC(C)(C)C(O)C(O)C3(COC(=O)C(C)=CC)C(O)CC21C (stereo not drawn) [Tig-R, 24,28-O-Tigloyl-3β,16α,21β,22α,24β,28-hexahydroxyolean-12-ene]",IC50 in SW3T3 cells,Swiss3T3 cells,above 20 ug/ml
same,IC50 of liver (HepG2),HepG2,6 µg/mL
same,IC50 of kidney (A498),A498,3.5 µg/mL
same,IC50 of breast (MCF-7),MCF-7,4.5 µg/mL
same,IC50 of bladder (HTB-9),HTB-9,2.5 µg/mL
same,IC50 of bone (U2OS),U2OS,4.5 µg/mL
same,IC50 of brain (T98G),T98G,8 µg/mL
same,IC50 of mouth (KB),KB cells,3 µg/mL
same,hemolytic activity,red blood cells (RBC),no hemolytic activity
same,hemolytic activity,red blood cells (RBC); up to 20 ug/ml,do not have hemolytic activity
same,IC50 of skin (SK-Mel-5),SK-Mel-5,5.1 µg/mL
CC=C(C)C(=O)OCC1(C)C(O)CCC2(C)C1CCC1(C)C2CC=C2C3CC(C)(C)C(OC(=O)C(C)=CC)C(O)C3(CO)C(O)CC21C (stereo not drawn) [Tig-S],effect on cell cycle,K562 cells [1],arrested in the S-phase
same,No grow (IC100),K562 cells [2]; beginning on day 2,≥ 2.5 µg/mL
same,"IC50, inhibition of Leukemia K562 cells growth","K562 cells [2]; cell count, up to four days",about 0.6 ug/ml
same,mechanism of cell-death,K562 cells [3],induces cell-death by the apoptosis mechanism
